The source of these data is publication PMC11280343, “Rubus urticifolius Compounds with Antioxidant Activity, and Inhibition Potential against Tyrosinase, Melanin, Hyaluronidase, Elastase, and Collagenase” (Pharmaceuticals, 2024).

Like-named read-outs stand apart in the source and are kept apart here.

Data set [1] can be described thus: NR viability assay, HEK001. The note with it: human. The format is cell-based, Homo sapiens. The procedure:
The HEK001 (Homo sapiens cutaneous keratinocyte, CCL-2404), WS1 (Homo sapiens cutaneous fibroblast, CRL-1502), HMCB (Homo sapiens cutaneous melanoma, CRL-9607), and THP-1 (Homo sapiens peripheral blood monocyte, TIB-202) cell lines used in this study were obtained from the American Type Culture Collection (ATCC, Manassas, VA, USA). Cultivated in a Roswell Park Memorial Institute (RPMI) 1640 medium (RPMI 1640 Merck, Cat. No. R7755, New York, NY, USA) supplemented with 2 mM L-glutamine (≥99% Merck, Cat. No. 56-85-9), 10% fetal bovine serum (FBS Merck, Cat. No. TMS-016, St. Louis, MO, USA), and 10,000 units of penicillin and 10 mg streptomycin/mL (Merck, Cat. No. P4333, St. Louis, MO, USA) in culture flasks, the cells were maintained in an incubator under normoxic conditions (20–21% O2) and a humidified atmosphere (5% CO2 at 37 °C).
Mother solutions of samples (extracts, fractions, and compounds) were prepared at a concentration of […] using dimethyl sulfoxide (DMSO ≥ 99.9% Merck, Cat. No. 67-68-5, St. Louis, MO, USA) as the solvent. From these mother solutions, dilutions were prepared at concentrations ranging from 100 to 0.20 μg/mL or μM in culture medium containing 0.5% DMSO. Additionally, a negative control group consisting solely of culture medium with 0.5% DMSO was included to assess its potential cytotoxic effect on the cells.
Cell viability was evaluated using a colorimetric assay in 96-well plates, employing 3-amino-7-dimethylamino-2-methylphenazine hydrochloride salt reagent (NR, Merck, Cat. No. 553-24-2, St. Louis, MO, USA).
HEK001, WS1, HMCB, and THP-1 cell lines were cultured in 96-well plates at 37 °C with 5% CO2 until > 90% confluency was achieved (1 × 10^6 cells/well). Subsequently, the cultures were treated with sample dilutions (100–0.20 μg/mL or μM) for 72 h at 37 °C with 5% CO2 in phenol red-free RPMI. The supernatant was then discarded and the cells were washed with phosphate-buffered saline (PBS) before being incubated with […] NR (50 μg/mL; 173 μM) for 3 h at 37 °C with 5% CO2. NR labelling was performed after DMSO treatment. After incubation, the labelled sample dilutions were rapidly washed with a fixative solution composed of 1% calcium chloride (CaCl2 Merck, Cat. No. 10043-52-4, St. Louis, MO, USA) and 0.5% formaldehyde solution (≥36.0% in H2O Merck, Cat. No. 50-00-0, St. Louis, MO, USA), then diluted with 100 μL of the NR extraction solution. Finally, the plates were read at 540 nm using a microplate reader (Anthos 2020, version 2.0.5, Biochrom Ltd., Cambridge, UK).

The next data set addresses T1, tyrosinase in HMCB cells (Homo sapiens, UniProt P14679).
T1 construct: endogenous in cells; host or cells: HMCB cells
T1 sequence (P14679 19-529): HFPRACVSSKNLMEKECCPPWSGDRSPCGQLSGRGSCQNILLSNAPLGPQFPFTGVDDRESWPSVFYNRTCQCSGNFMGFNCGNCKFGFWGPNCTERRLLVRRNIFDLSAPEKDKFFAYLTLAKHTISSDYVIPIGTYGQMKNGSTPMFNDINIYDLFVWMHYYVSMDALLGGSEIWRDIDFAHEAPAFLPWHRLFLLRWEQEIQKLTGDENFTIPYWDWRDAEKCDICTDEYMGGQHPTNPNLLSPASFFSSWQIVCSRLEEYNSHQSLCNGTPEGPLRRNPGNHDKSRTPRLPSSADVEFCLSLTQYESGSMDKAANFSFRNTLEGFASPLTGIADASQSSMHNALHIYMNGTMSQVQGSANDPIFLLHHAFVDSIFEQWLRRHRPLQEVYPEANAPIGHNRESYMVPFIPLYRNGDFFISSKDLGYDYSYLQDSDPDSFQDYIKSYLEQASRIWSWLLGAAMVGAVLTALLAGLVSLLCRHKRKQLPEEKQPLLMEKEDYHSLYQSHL
Briefly: Cellular tyrosinase assay (L-DOPA as substrate). The format is cell-based. As to the method:
To determine the anti-tyrosinase activity of the samples (at the same concentration as in the viability assay), tyrosinase inhibition assay was used, following the protocol carried out by Apaza Ticona et al.. HMCB cells were cultured in 96-well plates (1 × 10^6 cells/well). […] Absorbance was measured at 475 nm using a microplate reader.

The test system of data set [2] is NF-κB. Description: NF-κB inhibition assay (LPS-stimulated), HMCB. The format is cell-based. Conditions: Homo sapiens, 72 h, read-out: NF-κB Inhibition at 72 h IC50 ± SEM. The procedure:
(§1) To determine the anti-inflammatory activity of the samples (at the same concentration as in the viability assay), NF-κB inhibition assay was used, following the protocol carried out by Apaza Ticona et al.. Cells were cultured in 96-well plates (1 × 10^6 cells/well). […] Absorbance was measured at 450 nm using a microplate reader.

The test system of data set [3] is NF-κB. Description: NF-κB inhibition assay (LPS-stimulated), HEK001. The class given is cell-based. Conditions: Homo sapiens, read-out: NF-κB Inhibition at 72 h IC50 ± SEM. As to the method:
as §1

The subject of data set [4] is melanin production in HMCB cells. Briefly: Melanin content assay. Conditions: Homo sapiens, 12 h. The format is cell-based. As to the method:
To determine the anti-melanogenic activity of the samples (at the same concentration as in the viability assay), melanin inhibition assay was used, following the protocol carried out by Apaza Ticona et al.. HMCB cells were cultured in 96-well plates (1 × 10^6 cells/well). […] Absorbance was measured at 405 nm using a microplate reader.

Data set [5] has as its target T2, elastase from porcine pancreas (Sus scrofa, UniProt P00772).
T2 construct: elastase from porcine pancreas (7.5 units/mL); from tissue; host or cells: porcine pancreas
Description: Elastase-inhibitory effect assay. Conditions: for Elastase Inhibition (%): inhibition percentage 'at an IC50', concentration not otherwise stated. The format is biochemical. The procedure: The elastase-inhibitory effect was evaluated, implementing the protocol adapted from Tu and Tawata.
A mixture containing N-succinyl-Ala-Ala-Ala-p-nitroanilide (AAAPVN, Merck, Cat. No. 52299-14-6, St. Louis, MO, USA) elastase substrate in 0.1232 M Tris-HCl buffer solution (pH 8) was prepared to achieve a concentration of 1.015 mM. This elastase substrate was combined with 10 μL of the test samples at the same concentrations used as in the viability assay in 96-well plates and pre-incubated at room temperature (25 ± 5 °C) for 10 min. Subsequently, the reaction was initiated by adding 10 μL of elastase from porcine pancreas (7.5 units/mL) in Tris buffer solution to the pre-incubated mixtures. Absorbance was then measured at 410 nm using a microplate reader.

The mark [6] stands for this setting: HMCB cells, L-DOPA as substrate, 12 h, read-out: Tyrosinase inhibitory activity IC50.
Where [7] appears, read: HMCB cells, read-out: Inhibitory activity of melanin production IC50.

T2 sequence (P00772 27-266): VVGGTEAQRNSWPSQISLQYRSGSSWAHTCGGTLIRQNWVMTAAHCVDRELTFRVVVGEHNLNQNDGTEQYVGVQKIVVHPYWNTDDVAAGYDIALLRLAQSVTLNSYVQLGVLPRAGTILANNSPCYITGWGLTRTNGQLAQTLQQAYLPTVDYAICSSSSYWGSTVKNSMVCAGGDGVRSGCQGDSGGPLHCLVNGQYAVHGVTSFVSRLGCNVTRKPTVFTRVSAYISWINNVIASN

As for `CNC(=O)c1ccccc1NC(=O)/C=C/c1ccc(OC)c(OC)c1` [Compound 1, (E)-2-(3-(3,4-dimethoxyphenyl)acrylamido)-N-methylbenzamide], the half-maximal cytotoxic concentration (CC50) at 72 h in data set [1] (HEK001 cells (cutaneous keratinocytes), HEK001, NR assay, 72 h, read-out: Viability CC50) came to 76.2 µM. Further, the IC50 at tyrosinase in HMCB cells (setting [6]) amounted to 14.2 µM; in the data set on NF-κB [2] (LPS-stimulated), 9.82 ± 0.65 µM; with NF-κB [3] (HEK001, LPS-stimulated, 72 h), 11.2 ± 0.23 µM; in data set [4] (setting [7]), 22.2 µM; in data set [5] (read-out: Anti-Elastase IC50), 80.1 ± 1.92 µM. In addition, the “Elastase Inhibition (%)” value in data set [5] stood at 60.76 ± 1.44%.
Take `O=C(O)c1cc(O)c2ccccc2n1` [Compound 2, 4-hydroxyquinoline-2-carboxylic acid]: in data set [1], the CC50 at 72 h worked out at 95 µM. In addition, the IC50 stood at 33.8 µM at tyrosinase in HMCB cells (setting [6]); 30.7 ± 0.98 µM with NF-κB [2] (LPS-stimulated); 35.42 ± 0.12 µM in the data set on NF-κB [3] (HEK001, LPS-stimulated, 72 h); 44.7 µM in data set [4] (setting [7]); 168 ± 3.09 µM in data set [5] (read-out: Anti-Elastase IC50). Further, the “Elastase Inhibition (%)” value in data set [5] came to 17.68 ± 1.46%.
Consider `N#C/C(=C\c1ccc(O)cc1)C(=O)O` [Compound 3, (E)-2-cyano-3-(4-hydroxyphenyl)acrylic acid], for which, in data set [1] (HEK001, NR assay, 72 h, read-out: Viability CC50), the half-maximal cytotoxic concentration (CC50) at 72 h stood at 130 µM. For the same compound, the IC50 was found to be 51.5 µM against tyrosinase in HMCB cells; 51.42 ± 0.13 µM with NF-κB [2]; 55.97 ± 0.32 µM in the data set on NF-κB [3] (HEK001, 72 h); 71.1 µM in data set [4] (HMCB, read-out: Inhibitory activity of melanin production IC50, HMCB cells, 12 h); 192 ± 3.78 µM in data set [5]. In addition, in data set [5], the “Elastase Inhibition (%)” value is recorded as 6.19 ± 1.44%.
